Literature values in EP2703009A1, “Combination treatments involving antibodies to human PCSK9” (SANOFI, priority 2012, dated 2014).

How the values were obtained:
[1] = after oral administration; cited from earlier work
[2] = in vivo; cited from earlier work
[3] = tested on: patients with genotype-confirmed hoFH; conditions: ezetimibe 10 mg/day added to the maximal dose of statins; cited from earlier work
PCSK9 = conditions: stated as known for statins and ezetimibe; limited or no information on ezetimibe alone; cited from earlier work

Structure (SMILES)	half-life (elimination from plasma) [1]	Frequent adverse events reported [2]	total reduction of LDL-C levels [3]	PCSK9 expression (PCSK9)	Less frequently reported adverse events [2]
O=C(O)[C@H]1O[C@@H](Oc2ccc([C@@H]3[C@@H](CC[C@H](O)c4ccc(F)cc4)C(=O)N3c3ccc(F)cc3)cc2)[C@H](O)[C@@H](O)[C@@H]1O [ezetimibe-glucuronide]	approximately 22 hours				
O=C1[C@H](CC[C@H](O)c2ccc(F)cc2)[C@@H](c2ccc(O)cc2)N1c1ccc(F)cc1 [ezetimibe]		abdominal pain, diarrhea, flatulence, fatigue, increase ALT/AST, headache and myalgia	27%	upregulated	
CC(C)OC(=O)C(C)(C)Oc1ccc(C(=O)c2ccc(Cl)cc2)cc1 [fenofibrate]		abdominal pain, nausea, vomiting, diarrhea, flatulence, increase ALT/AST			pancreatitis, thromboembolism (pulmonary embolism, deep venous thrombosis), biliary lithiasis, rash, pruritus, urticaria, photosensitivity reaction, increase creatinine and increase urea
CC(C)(Oc1ccc(C(=O)c2ccc(Cl)cc2)cc1)C(=O)O [Fenofibric acid]	20 h				
